Consider 1 compound from patent US20040186274A1, “Methylation of histone h4 at arginine 3” (priority 2001, published 2004).

SMILES strings stand for the structures.

The subject of this assay is H4-Arg 3 methylation in HeLa cells. Kind of assay: TSA treatment of HeLa cells, methylation state of H4-Arg 3 in isolated core histones. It is filed as cell-based, human. Particulars: twelve hours after TSA treatment, hyperacetylated H4. Here is the method: To determine whether this inhibition occurs in vivo, HeLa cells were treated with a histone deacetylase inhibitor, Tricostatin A (TSA), to induce hyperacetylation. Twelve hours after TSA treatment, core histones were isolated, and the methylation state of H4-Arg 3 was analyzed. […] Therefore, hyperacetylation on lysine residues correlates with hypomethylation of H4 Arg 3.

As for `CC(/C=C/C(=O)NO)=C\[C@@H](C)C(=O)c1ccc(N(C)C)cc1` [Tricostatin A], the “H4 Arg 3 methylation level” value is “almost undetectable”.
